Each block holds one molecule with its values, some of them ahead of it.
Key:
in vitro = conditions: PAMPA, pH 6.5
[1] = Metabolic stability in liver microsomes (unknown origin); type: ADME
[2] = Solubility of the compound; type: physicochemical
[3] = Stability in Wistar rat blood assessed as parent compound remaining at 1 ug/ml after 1 hr by LC-MS/MS analysis; type: ADME, tissue-based; conditions: read-out: Stability
[4] = pampa, pH 6.5, 2 h, 50 µM
[5] = Half life in Wistar rat plasma at 1 mg/kg, iv by LC-MS/MS analysis; type: ADME, organism-based
[6] = Cmax in Wistar rat plasma at 1 mg/kg, po by LC-MS/MS analysis; type: ADME, organism-based; design: dose 1 mg/kg, route oral
[7] = Total clearance in Wistar rat plasma at 1 mg/kg, iv by LC-MS/MS analysis; type: ADME, organism-based
[8] = AUC (0 to 24 hrs) in Wistar rat plasma at 1 mg/kg, po by LC-MS/MS analysis; type: ADME, organism-based; design: dose 1 mg/kg, time < 24 hr, route oral
[9] = AUC (0 to 24 hrs) in Wistar rat plasma at 1 mg/kg, iv by LC-MS/MS analysis; type: ADME, organism-based; design: time < 24 hr, dose 1 mg/kg, route intravenous
[10] = Half life in Wistar rat plasma at 1 mg/kg, po by LC-MS/MS analysis; type: ADME, organism-based
[11] = Volume of distribution at steady state in Wistar rat plasma at 1 mg/kg, iv by LC-MS/MS analysis; type: ADME, organism-based; conditions: read-out: Vdss
[12] = Oral bioavailability in Wistar rat plasma at 1 mg/kg by LC-MS/MS analysis; type: ADME, organism-based

Compound: CCNC(=O)c1ccc(-c2cccc(CN(C)C(=O)CN)c2)cc1.Cl
- Papp at 2 h, 50 µM (in vitro): < 0.2 ×10⁻⁶ cm/s

- Stability [1]: Stable
- solubility [2]: Soluble
- remaining at 1 h, 1 ug/ml [3]: 33%
- Peff [4]: Permeable
Compound: Cl.NCC(=O)NCc1cccc(-c2ccccc2)c1

Compound: CCN(CC)C(=O)c1ccc(-c2cccc(CN(C)C(=O)CN)c2)cc1.O=C(O)C(=O)O
- Papp at 2 h, 50 µM (in vitro): 3.8 ×10⁻⁶ cm/s

Compound: CN(Cc1cccc(-c2ccc(N3CCOCC3)cc2)c1)C(=O)CN.O=C(O)C(=O)O
- half-life [5]: 28.2 min
- Cmax [6]: 73.4 ng/mL
- clearance [7]: 134 mL/min/kg
- AUC(0-t) at 24 h [8]: 69.6 ng·h/mL
- AUC(0-t) at 24 h [9]: 127 ng·h/mL
- half-life [10]: 34.8 min
- Vd [11]: 6.06 L/kg
- bioavailability [12]: 54.9%
- Papp at 2 h, 50 µM (in vitro): 22.1 ×10⁻⁶ cm/s

From ChEMBL document CHEMBL3870326, “Synthesis and structure activity relationships of glycine amide derivatives as novel Vascular Adhesion Protein-1 inhibitors” (Bioorg Med Chem, 2017)
